The text below walks through data of patent US7863315B2, “2-indolinone derivatives as selective histone deacetylase inhibitors” (Shenzhen Chipscreen Biosciences, Ltd., priority 2008, dated 2011).

Common to all, as to format: cell-based
Experiment [1] has as its system HDAC class I (p21 reporter gene). Put plainly: HDAC subtype reporter gene assay, p21-promoter luciferase in HeLa cells. To be noted: Homo sapiens, M-HeLa, read-out: % of SAHA Response for HDAC class I at 10 μM (p21 reporter gene), 24 hours. The procedure: (§1) Measurement of inhibition of HDAC subtypes activity in cells by reporter gene assay: HDAC subtype selectivity inhibition assay of tested compounds was carried out by several reporter gene assays experiments. Briefly, HeLa cells were seeded in 96-well plates the day before transfection to give a confluence of 50-80%. Cells were transfected with one of reporter gene plasmids containing a promoter sequences or response elements upstream of a luciferase gene construct using FuGene6 transfection reagent according to the manufacturer's instructions (Roche). The promoters or response elements including p21-promoter, gdf11-promoter, MEF-binding element (MEF2), Nur77-promoter were fused upstream to the luciferase gene reporter construct. For normalizing the transfection efficiency, a GFP expression plasmid was cotransfected. Cells were allowed to express protein for 24 hours followed by addition of individual compounds or the vehicle (DMSO). 24 hours later, the cells were harvested and the luciferase assays were performed using the luciferase assay kit according to the manufacturer's instructions (Promega). To normalize the data from the luciferase assays, GFP activity from transfected cells was measured in a microtiter-plate reading fluorimeter capable of excitation at a wavelength at 485 nm and detection of emitted light at 527 nm.
(In general: A reporter such as luciferase makes a cellular process visible.)

Experiment [2] deals with HDAC3 (gdf11 reporter gene). Put plainly: HDAC subtype reporter gene assay, gdf11-promoter luciferase in HeLa cells. To be noted: Homo sapiens, M-HeLa, read-out: % of SAHA Response for HDAC3 at 10 μM (gdf11 reporter gene), 24 hours. The procedure:
as §1

The subject of experiment [3] is HDAC4/5 (MEF2 reporter gene). Briefly: HDAC subtype reporter gene assay, MEF-binding element (MEF2) luciferase in HeLa cells. To be noted: Homo sapiens, M-HeLa, read-out: % of SAHA Response for HDAC4/5 at 10 μM (MEF2 reporter gene), 24 hours. The procedure:
as §1

For experiment [4], the system named is HDAC7 (Nur77 reporter gene). Put plainly: HDAC subtype reporter gene assay, Nur77-promoter luciferase in HeLa cells. To be noted: Homo sapiens, M-HeLa, read-out: % of SAHA Response for HDAC7 at 10 μM (Nur77 reporter gene), 24 hours. The procedure: as §1
The test system of the next experiment is lysine acetylation. Put plainly: ELISA assay of acetylation of lysine in HeLa cells. To be noted: Homo sapiens, M-HeLa, 24 hours. The source says:
Measurement of acetylation activity in cells on substrates:
ELISA Assay of Acetylation of Lysine
This assay is used to measure in vivo inhibition of HDAC6 in a cytoblot assay.
Materials and Reagent: • 1. 24-well tissue culture • 2. DMEM Medium containing 10% FBS • 3. 96-well white plate • 4. HeLa cell line • 5. M-PER Mammalian Protein Extraction Reagent (Pierce) • 6. Bradford assay reagent • 7. Acetylated-lysine polyclonal Antibody (Cell Signaling) • 8. HRP-labeled anti-rabbit IgG (Upstate) • 9. Coating Buffer: 15 mM Na2CO3, 35 mM NaHCO3 (pH 9.6) • 10. 10×PBS: 0.58M Na2HPO4, 0.17M NaH2PO4, 0.68M NaCl (pH 7.4) • 11. Wash Buffer:1×PBS containing 0.05% Tween-20 (PBST) • 12. Blocking Buffer:10 mg/ml bocine serum albumin (BSA) in PBS • 13. Antibody Dilution Buffer: 5 mg/ml BSA in PBST • 14. Enhanced chemiluminescence (ECL) (Amersham)
Procedure for performing the assay in 96-well plate: • 1. HeLa cells were seeded at a density of 60000 cells/500 μl/well in 24-well plate and incubated at 37° C. for 24 hours. • 2. Compounds were added and incubated for 24 hours at 37° C. • 3. Culture medium was removed, then washes the cells twice with ice-cold PBS. • 4. Add 100 μl/well of Protein Extraction Reagent and gently shake the mixture for 5 minutes. • 5. Collect the lysate to a 96-well plate respectively. Determine the concentration of protein by Bradford assay. • 6. Coat the wells of a 96-well white plate with 100 μl/well of 2.5 μg whole cell protein in Coating Buffer by incubating overnight at 4° C. • 7. Discard the uncoated proteins and wash the coated wells three times with 200 μl/well of PBST. • 8. Block coated wells by incubating the plate with 200 μl/well of Blocking Buffer for 1 hour at 37° C. • 9. Wells were aspirated and washed three times with 200 μl/well of PBST. • 10. After aspirating, 50 μl/well of Antibody Dilution Buffer containing acetylated-lysine polyclonal antibody (1:1000) were added to each well and incubated for 2 hour at 37° C. • 11. Wells were aspirated and washed three times with 200 μl/well of PBST. • 12. 50 μl/well of Antibody Dilution Buffer containing HRP-labeled anti-rabbit IgG (1:2000) were added to each well and incubated for 2 hour at 37° C. • 13. Wells were aspirated and washed three times with 200 μl/well of PBST. • 14. Wells were washed three times with 200 μl/well of purified water. • 15. Add 50 μl/well of ECL mixture, then read the plates on the plate reader.
On the technique in general: In an ELISA, binding on a coated surface is turned into a signal by an enzyme label.

In general, fold induction refers to the signal under treatment as a multiple of the control signal. A high value points to a strong induction. Consider `Nc1ccccc1NC(=O)CCCCCNC(=O)c1cccc(/C=C2\C(=O)Nc3ccc(F)cc32)c1` [Example 44, 6-(3-((5-fluoro-2-oxoindolin-3-ylidene)methyl)benzamido)-N-(2-aminophenyl)hexanamide], for which the Emax at 10 µM in experiment [1] worked out at 97%; in experiment [2] it was 48%; in experiment [3], 85%; in experiment [4], 35%. This compound displayed a fold induction at 10 µM in the experiment on lysine acetylation of 1.42.
For `O=C(CCCCCNC(=O)c1ccc(/C=C2\C(=O)Nc3ccc(F)cc32)cc1)NO` [Example 41, 6-(4-((5-fluoro-2-oxoindolin-3-ylidene)methyl)benzamido)-N-hydroxyhexanamide], in that order: 13%, 11%, 21%, 4% and 1.6.
For `Nc1ccccc1NC(=O)CCCCCNC(=O)c1ccc(/C=N/N=C2\C(=O)Nc3ccc(F)cc32)cc1` [Example 32, 6-(4-(((5-fluoro-2-oxoindolin-3-ylidene)hydrazono)methyl)benzamido)-N-(2-aminophenyl)hexanamide], in that order: 17%, 12%, 28%, 5% and 1.32.
For `Cc1[nH]c(/C=N/N=C2\C(=O)Nc3ccc(F)cc32)c(C)c1C(=O)NCCCCCC(=O)NO` [Example 11, 6-(5-(((5-fluoro-2-oxoindolin-3-ylidene)hydrazono)methyl)-2,4-dimethyl-1H-pyrrole-3-carboxamido)-N-hydroxyhexanamide], the Emax at 10 µM in experiment [1] came out at 52%; in experiment [2], 49%; in experiment [3], 27%; in experiment [4], 9%. This compound also came in with a fold induction at 10 µM in the experiment with lysine acetylation of 1.87.
For the compound `Nc1cc(F)ccc1NC(=O)CCCCCCCNC(=O)c1ccc(/C=N/N=C2\C(=O)Nc3ccc(F)cc32)cc1` [Example 36, 8-(4-(((5-fluoro-2-oxoindolin-3-ylidene)hydrazono)methyl)benzamido)-N-(2-amino-4-fluorophenyl)octanamide], the Emax at 10 µM in experiment [1] worked out at 9%; in experiment [2], 6%; in experiment [3], 50%; in experiment [4], 7%. Moreover, the fold induction at 10 µM with lysine acetylation came to 1.35.
In the case of `O=C(CCCCNC(=O)c1cccc(/C=C2\C(=O)Nc3ccc(F)cc32)c1)NO` [Example 51, 5-(3-((5-fluoro-2-oxoindolin-3-ylidene)methyl)benzamido)-N-hydroxypentanamide], the Emax at 10 µM in experiment [1] was 18%; in experiment [2], 12%; in experiment [3], 33%; in experiment [4] it was 3%. The fold induction at 10 µM with lysine acetylation worked out at 1.31.
Taken in the same sequence, the figures for `O=C(CCCCCNC(=O)c1ccc(/C=N/N=C2\C(=O)Nc3ccc(F)cc32)cc1)NO` [Example 31, 6-(4-(((5-fluoro-2-oxoindolin-3-ylidene)hydrazono)methyl)benzamido)-N-hydroxyhexanamide] were 39%, 36%, 30%, 8% and 1.67.
For `Nc1cc(F)ccc1NC(=O)CCCCCNC(=O)c1ccc(/C=C2\C(=O)Nc3ccc(F)cc32)cc1` [Example 40, 6-(4-((5-fluoro-2-oxoindolin-3-ylidene)methyl)benzamido)-N-(2-amino-4-fluorophenyl)hexanamide], in that order: 19%, 13%, 56%, 9% and 1.5.
